Experimental data published in patent US20100261783A1, “CRUCIFEROUS 3H-1,2-DITHIOLE-3-THIONE (D3T) AND METHODS OF PROTECTING AGAINST CELL INJURY” (priority 2009, published 2010).

Key:
human cardiomyocytes [1] = test: Protection of human cardiomyocytes from oxidative/electrophilic injury and doxorubicin toxicity; assay type: cell-based
human primary astrocytes = test: Induction of cellular antioxidants and phase 2 enzymes in human primary astrocytes; assay type: cell-based
SH-SY5Y cells [2] = conditions: D3T-pretreatment; dopamine, 6-hydroxydopamine, 4-hydroxy-2-nonenal, H2O2; cited from earlier work
SH-SY5Y cells [3] = test: Protection of SH-SY5Y cells against neurotoxicant-elicited cytotoxicity; assay type: cell-based; conditions: human neuroblastoma SH-SY5Y cells
human cardiomyocytes [4] = conditions: cited from earlier work
[5] = system: human neuroblastoma SH-SY5Y cells; test: Induction of cellular antioxidants and phase 2 enzymes (GSH, NQO1, GCL) in SH-SY5Y cells; assay type: cell-based
[6] = system: primary human cardiomyocytes; conditions: cited from earlier work
[7] = system: human neuroblastoma SH-SY5Y cells; conditions: D3T-pretreatment of SH-SY5Y cells; cited from earlier work
[8] = system: primary human cardiomyocytes; test: Induction of antioxidants and phase 2 enzymes in human cardiomyocytes; assay type: cell-based

With `S=c1ccss1` [D3T, 3H-1,2-dithiole-3-thione] the “protection of cardiomyocytes from injury elicited by doxorubicin” value (human cardiomyocytes [1]; doxorubicin) was “potently protected”, the “protection of cardiomyocytes from injury caused by free radicals and electrophiles” value (human cardiomyocytes [1]; wide range of free radicals and electrophiles) was “nearly complete protection” and the “induction of cellular antioxidants including glutathione (GSH) and phase 2 enzymes” value (human primary astrocytes) was “able to induce”. The “protection against the cytotoxicity elicited by neurotoxicants” value (SH-SY5Y cells [2]) was “significant protection”, the “protection against acrolein-induced cytotoxicity” value (SH-SY5Y cells [3]) was “dramatic protection” and the “resistance to oxidative/electrophilic stress and doxorubicin toxicity” value (human cardiomyocytes [4]) was “increased resistance”. For the same compound, the “induction of glutathione (GSH)” value ([5]; SH-SY5Y cells) was “marked concentration- and time-dependent induction”, the “protein and mRNA expression of gamma-glutamylcysteine ligase (GCL)” value ([5]; SH-SY5Y cells) was “increased” and the “induction of cellular antioxidants and phase 2 enzymes” value ([5]; human neuronal cells (neuroblastoma SH-SY5Y cells)) was “capable of inducing”. For the same compound, the “upregulation of antioxidants and phase 2 enzymes” value [6] was “potently upregulated”, the “induction of GSH, NQO1, and mitochondrial GSH” value [7] was “induction” and the “induction of antioxidants in mitochondria” value ([8]; mitochondria of the human cardiomyocytes) was “potently induced”. The “induction of a series of antioxidants” value ([8]; primary human cardiomyocytes, total cellular) was “potently induced”.
